Measurements taken from patent US20120055467A1, “METERED-DOSE INHALER AND METHOD OF USING THE SAME” (CHIESI FARMACEUTICI S.P.A., priority 2010, published 2012).

Test: Andersen Cascade Impactor (ACI) evaluation of pMDI spray drug delivery characteristics
Type: physicochemical
Method: Spray characteristics of the system were evaluated by an Andersen cascade impactor fitted with a USP throat (App. 1, USP 33). […] This was repeated twice. Pre- and post-shot weights were recorded. […] The solutions were analysed by using a UPLC/MS (Ultra Performance Liquid Chromatography/Mass Spectrometry) system for the determination of the drug deposition.

[1] = Ex 2/3, Standard MDI, single can, 0.22 mm orifice, mean, n=3
[2] = Ex 2, Dual MDI, Formulations 3+4, single 0.22 mm orifice, mean, n=2
[3] = Ex 3, Dual MDI, Formulation 3 + placebo Formulation 5, single 0.22 mm orifice, mean, n=3
[4] = Ex 5, Dual-MDI, Formulations 8+3, single 0.22 mm orifice, mean, n=3
[5] = Ex 19, dual reservoir-single orifice prototype (FIG. 14B)
[6] = Ex 19, dual reservoir-single orifice prototype (FIG. 14B), BDP/Formoterol 100/6 μg/25 μl + glycopyrronium bromide 12.5 μg/25 μl
[7] = Ex 20, triple reservoir-single orifice prototype (FIG. 16B)
[8] = Ex 20, triple reservoir-single orifice prototype (FIG. 16B), BDP/Formoterol + glycopyrronium bromide + budesonide 50 μg/25 μl

| SMILES | Delivered Dose [5] | FPD [5] | FPF [5] | MMAD [5] | Metered Dose [6] | Delivered Dose [7] | FPD [7] | FPF [7] | MMAD [7] | Metered Dose [8] | also measured |
| --- | --- | --- | --- | --- | --- | --- | --- | --- | --- | --- | --- |
| COc1ccc(C[C@@H](C)NC[C@H](O)c2ccc(O)c(NC=O)c2)cc1.COc1ccc(C[C@@H](C)NC[C@H](O)c2ccc(O)c(NC=O)c2)cc1.O=C(O)/C=C/C(=O)O [Formoterol, Formoterol fumarate] | 3.6 µg | 1.6 µg | 44.3% | 1.3 μm | 5.7 µg | 3.3 µg | 1.1 µg | 33.9% | 1.5 μm | 5.2 µg | Delivered Dose (Ex 2/3, Standard MDI, single can (BDP 100 μg/50 μl or formoterol fumarate 6 μg/50 μl), 0.22 mm orifice, mean, n=3): 4.1 µg; FPD ≦ 5 μm [1]: 2.1 µg; FPF [1]: 51.9%; MMAD [1]: 0.9 μm; Delivered Dose (Ex 2, Dual MDI, Formulation 3 (formoterol fumarate 6 μg/25 μl) + Formulation 4 (BDP 100 μg/25 μl, glycerol) mixed, single 0.22 mm orifice, mean, n=2): 3.2 µg; FPD ≦ 5 μm [2]: 1.9 µg; FPF [2]: 61.1%; MMAD [2]: 2.1 μm; Delivered Dose (Ex 3, Dual MDI, Formulation 3 (formoterol 6 μg/25 μl) + placebo Formulation 5 (glycerol), single 0.22 mm orifice, mean, n=3): 4.2 µg; FPD ≦ 5 μm [3]: 2.7 µg; FPF [3]: 64.0%; MMAD [3]: 1.5 μm; Delivered Dose (Ex 5, Dual-MDI, Formulation 8 (budesonide 400 μg/63 μl) + Formulation 3 (formoterol 6 μg/25 μl), single 0.22 mm orifice, mean, n=3): 3.5 ± 0.7 µg; FPD ≦ 5 μm [4]: 1.9 ± 0.2 µg; FPF [4]: 53.6 ± 6.6%; MMAD [4]: 1.7 ± 0.1 μm |
| C[N+]1(C)CCC(OC(=O)C(O)(c2ccccc2)C2CCCC2)C1 (stereo not drawn) [Glycopyrronium bromide] | 7.9 µg | 3.5 µg | 44.1% | 1.3 μm | 11.3 µg | 6.9 µg | 2.2 µg | 32.4% | 1.4 μm | 10.8 µg |  |
